Some test systems named below: UACC-62; COLO 205; SNB-19; HCC 2998; SF-295; SK-MEL-5; UO-31; Hs-578T; OVCAR-3; OVCAR-4; SN12C; M14; DU-145; RPMI-8226; CAKI-1; HT-29; SW-620; RXF 393; CCRF-CEM; SR.
Common to all, as to assay: growth of human tumour cells (NCI), 48 h

The results in this text go back to ChEMBL document CHEMBL1201862, “PubChem BioAssay data set” (2004).

Structures can show the parent of a compound that is named as a salt.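 Step 1: Grow cells in 96-well plates. Step 2: Expose to compound for 48 hours at 5 concentrations. Step 3: Interpolate endpoints linearly; if unreached, use highest concentration. GI50: concentration for 50% inhibition of growth.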 Active and inactive are the calls of the source. Cut-off read from the data, not from the text of the source: active = GI50 up to about 1.1 µM and inactive = higher.

Regarding `O=C(O)Cc1nc[nH]c1C(=O)O`, the GI50 with UACC-62, in the test on COLO 205, with SNB-19, with HCC 2998, in the test with SF-295 and in the test with SK-MEL-5 was > 100 µM (inactive) throughout. The GI50 in the test on UO-31, in the test with Hs-578T, in the test with OVCAR-3, in the test on OVCAR-4, in the test with SN12C and in the test on M14 was > 100 µM (inactive) throughout. Further, the GI50 in the test with DU-145, in the test on RPMI-8226, in the test on CAKI-1, with HT-29, with SW-620 and in the test on RXF 393 was > 100 µM (inactive) each time. Besides, the GI50 with CCRF-CEM was > 100 µM (inactive).

As for `O=C(O)c1nn[nH]c1Cl`, the GI50 with UACC-62, in the test with COLO 205, in the test on HCC 2998, in the test on SF-295, in the test on SK-MEL-5 and with UO-31 was > 100 µM (inactive) throughout. The GI50 in the test on Hs-578T, in the test on OVCAR-3, in the test on OVCAR-4, in the test on SN12C, in the test on M14 and in the test with DU-145 was > 100 µM (inactive) in each case. The GI50 in the test with RPMI-8226, with HT-29, in the test with SW-620, in the test on RXF 393 and with CCRF-CEM was > 100 µM (inactive) in each case.

With `CC(SC(=S)N1CCCC1)C(=O)Nc1nnc(-c2ccc(Cl)cc2)o1` (centres undefined), the GI50 was 30.5 µM (inactive) in the test with UACC-62; 37.6 µM (inactive) in the test with COLO 205; 35.6 µM (inactive) in the test on SNB-19; 57.4 µM (inactive) with HCC 2998; 29.5 µM (inactive) with SK-MEL-5; 19.2 µM (inactive) with UO-31. Further, the GI50 in the test on Hs-578T is 44.8 µM (inactive); in the test with OVCAR-3 it was 32.7 µM (inactive); with OVCAR-4 it was 35.5 µM (inactive); with SN12C it was 17.7 µM (inactive); in the test on M14, 15.5 µM (inactive); in the test with DU-145, 44.2 µM (inactive). In addition, the GI50 in the test with RPMI-8226 is 14.6 µM (inactive); in the test with HT-29, 21.8 µM (inactive); in the test on SW-620 it was 36.6 µM (inactive); in the test with RXF 393 it was 55.2 µM (inactive); in the test on CCRF-CEM, < 0.01 µM (active).

Regarding `COc1cc(C2SCC(=O)N2c2cccc(Cl)c2)cc(OC)c1OC` (centres undefined), the GI50 with UACC-62 is 11.3 µM (inactive); in the test with SR, 28.4 µM (inactive); in the test with COLO 205 it was > 100 µM (inactive); in the test with SNB-19, 11.4 µM (inactive); with HCC 2998 it was > 100 µM (inactive); in the test with SF-295, 43.7 µM (inactive). Besides, the GI50 in the test with SK-MEL-5 is > 100 µM (inactive); in the test with UO-31 it was 58.2 µM (inactive); in the test with Hs-578T, > 100 µM (inactive); in the test with OVCAR-4, 54.6 µM (inactive); in the test with SN12C, 56.9 µM (inactive); in the test on M14, 84.9 µM (inactive). The GI50 in the test with DU-145 was 63.7 µM (inactive); in the test on RPMI-8226 it was 45.7 µM (inactive); in the test on CAKI-1 it was 55.7 µM (inactive); in the test on HT-29, > 100 µM (inactive); in the test with SW-620, > 100 µM (inactive); in the test with CCRF-CEM, 27.7 µM (inactive).

On to `C=C(Cl)CN1c2ccccc2C=Cc2ccccc21`, for which the GI50 in the test with UACC-62 is 10.1 µM (inactive); in the test with COLO 205, 12.8 µM (inactive); in the test with SNB-19, 22.5 µM (inactive); in the test on HCC 2998, 17.6 µM (inactive); in the test on SF-295, 10.4 µM (inactive); in the test on SK-MEL-5 it was 7.23 µM (inactive). The GI50 with UO-31 was 31.6 µM (inactive); in the test on Hs-578T, 53.3 µM (inactive); in the test with OVCAR-3, 15.7 µM (inactive); in the test on OVCAR-4, 21.3 µM (inactive); in the test with SN12C it was 20.6 µM (inactive); in the test on M14, 17 µM (inactive). Also, the GI50 in the test on DU-145 is 29.7 µM (inactive); with CAKI-1, 10 µM (inactive); with HT-29, 9.44 µM (inactive); in the test with RXF 393, 13 µM (inactive).

In the case of `CC1CC/C(=C\c2ccc(F)cc2)C(=O)/C1=C/c1ccc(F)cc1` (centres undefined), the GI50 with UACC-62 is 11.6 µM (inactive); with COLO 205 it was 5.77 µM (inactive); in the test on SNB-19, 10.1 µM (inactive); in the test on SF-295, 2.84 µM (inactive); in the test on SK-MEL-5, 4.57 µM (inactive); in the test on UO-31, 11.1 µM (inactive). The GI50 was 6.58 µM (inactive) with Hs-578T; 5.7 µM (inactive) in the test on OVCAR-3; 3.22 µM (inactive) with SN12C; 6.76 µM (inactive) with M14; 4.07 µM (inactive) in the test on DU-145; 1.61 µM (inactive) in the test on RPMI-8226. Further, the GI50 with CAKI-1 is 3.85 µM (inactive); with HT-29, 2.92 µM (inactive); with SW-620 it was 6.04 µM (inactive); with RXF 393, 3.17 µM (inactive); with CCRF-CEM, 3.62 µM (inactive).

In the case of `Cn1c(N)cc(=O)nc1N`, the GI50 in the test on UACC-62, with SR, in the test on COLO 205, in the test with SNB-19, in the test on HCC 2998 and with SF-295 was > 100 µM (inactive) each time. The GI50 with SK-MEL-5, with UO-31, in the test with Hs-578T, with OVCAR-3, in the test on OVCAR-4 and in the test on SN12C was > 100 µM (inactive) throughout. Moreover, the GI50 in the test with M14, with DU-145, with RPMI-8226, in the test with CAKI-1, in the test with HT-29 and in the test on SW-620 was > 100 µM (inactive) throughout. The GI50 in the test with CCRF-CEM was > 100 µM (inactive).

Consider `CCCCNc1nc(O)c2[nH]cnc2n1`, for which the GI50 in the test on UACC-62, with COLO 205, in the test on SNB-19, in the test on HCC 2998, in the test with SF-295 and in the test on SK-MEL-5 was > 100 µM (inactive) throughout. The GI50 in the test on UO-31, in the test with Hs-578T, with OVCAR-3, in the test on OVCAR-4, with SN12C and with M14 was > 100 µM (inactive) throughout. The GI50 with DU-145, with RPMI-8226, in the test on CAKI-1, in the test with HT-29, in the test on SW-620 and in the test with RXF 393 was > 100 µM (inactive) each time. The GI50 in the test on CCRF-CEM is > 100 µM (inactive).

Turning to `COc1ccccc1-c1cc(O)c2ccc(C)nc2n1`, the GI50 with UACC-62 is > 100 µM (inactive); with COLO 205, 54.1 µM (inactive); in the test on SNB-19, > 100 µM (inactive); with HCC 2998, > 100 µM (inactive); in the test with UO-31, > 100 µM (inactive); with Hs-578T, > 100 µM (inactive). Moreover, the GI50 was > 100 µM (inactive) with OVCAR-4; > 100 µM (inactive) in the test on SN12C; 98.2 µM (inactive) with M14; > 100 µM (inactive) in the test on DU-145; > 100 µM (inactive) in the test on RPMI-8226; > 100 µM (inactive) in the test with CAKI-1. Also, the GI50 with HT-29 was 26.6 µM (inactive); in the test with SW-620, 50.9 µM (inactive); with RXF 393, > 100 µM (inactive); with CCRF-CEM, > 100 µM (inactive).

Consider `C[C@@H](Oc1ccc(Oc2cnc3ccc(Cl)cc3n2)cc1)C(=O)O` [R(+)XK469], for which the GI50 in the test on UACC-62 is 66.7 µM (inactive); with SR it was > 100 µM (inactive); with COLO 205, 59.3 µM (inactive); in the test with SNB-19 it was > 100 µM (inactive); with SF-295, > 100 µM (inactive); with SK-MEL-5, 67.5 µM (inactive). Moreover, the GI50 with UO-31 was > 100 µM (inactive); with Hs-578T it was 60.1 µM (inactive); with OVCAR-3 it was 95.7 µM (inactive); with OVCAR-4, > 100 µM (inactive); with SN12C it was > 100 µM (inactive); in the test on M14 it was > 100 µM (inactive). Further, the GI50 is > 100 µM (inactive) with DU-145; > 100 µM (inactive) in the test on CAKI-1; > 100 µM (inactive) in the test on HT-29; 85.3 µM (inactive) with SW-620; > 100 µM (inactive) with RXF 393; 97.3 µM (inactive) in the test on CCRF-CEM.

Take `CN(C)CCOc1ccc(/C(=C(/CCCl)c2ccccc2)c2ccccc2)cc1` [TOREMIFENE CITRATE]: the GI50 with SR is 3.23 µM (inactive); with COLO 205 it was 19.4 µM (inactive); in the test with SNB-19 it was 15 µM (inactive); in the test with HCC 2998, 5.16 µM (inactive); in the test with SF-295, 15 µM (inactive); in the test on SK-MEL-5, 16 µM (inactive). Further, the GI50 was 16.7 µM (inactive) with UO-31; 17.2 µM (inactive) in the test with Hs-578T; 11.9 µM (inactive) in the test with OVCAR-3; 17.3 µM (inactive) with OVCAR-4; 16.7 µM (inactive) in the test on SN12C; 14.1 µM (inactive) in the test on M14. In addition, the GI50 with DU-145 is 17.7 µM (inactive); in the test with RPMI-8226, 4.45 µM (inactive); in the test on CAKI-1, 15 µM (inactive); in the test with HT-29, 5.81 µM (inactive); with SW-620, 16.5 µM (inactive); in the test with CCRF-CEM, 6.1 µM (inactive).
